“Also recorded” adds a separate entry of the source.
Columns and labels:
[1] = system: Human peripheral blood lymphocytes (PBLs) stimulated with PHA; assay: Inhibition of T lymphocyte proliferation (tritiated thymidine); format: cell-based
[2] = system: phospho-LAT; assay: Western blot of TCR related signaling, phospho-LAT; format: cell-based, Human; details: 10 min pretreatment, 10 min PHA; compared to a stimulated untreated control
Description: (§1) Lymphocytes were seeded in a 6 well plate (1.0·10^7/well), pretreated for 10 minutes with S3.1, S3.4 or dexamethasone and stimulated for 10 minutes with PHA. The experiment was stopped by adding a large volume of ice cold PBS to the cells. The suspension was transferred to a tube, briefly spinned down in a centrifuge and the supernatant removed. The pellet was lysed by adding cold lysis buffer (0.1% NP40, 50 mM TrisHCl, 1 mM EDTA, 1 mM EGTA, 150 mM NaCl, 200 μM Na3VO4, 10 mM NaF and protease inhibitors) and incubating 20 minutes on ice.
(§2) To investigate the cell signaling events that are affected by treatment with S3.1 and S3.4, lysates were supplemented with sample buffer (188 mM Tris-Cl (pH 6.8), 3% SDS, 30% glycerol, 0.01% bromophenol blue, 15% β-mercaptoethanol), heated to 95° C. for 5 minutes, cooled on ice and sonicated. Samples were then run on 10% SDS-PAGE gel, blotted to PVDF membrane and incubated with antibodies for phospho-Zap70 (Cell Signaling Technology (Beverly, Mass.)) and phospho-LAT (Cell Signaling Technology (Beverly, Mass.)). To show equal loading of the samples the blot was incubated with an antibody directed against beta-actin (Santa Cruz Biotechnology (Heidelberg, Germany)).

[3] = system: interaction between lymphocyte-specific protein tyrosine kinase (LCK) and its chaperone Hsp90; assay: Immunoprecipitation of Lck and blotting for Hsp90; format: cell-based, Human; details: Lck immunoprecipitation, PHA stimulated lymphocytes
Description: as §1
The kinase Lck acts as a gate keeper to T cell receptor (TCR) related signaling as it is one of the first and most up stream kinases to be activated upon stimulation of the TCR. As downstream signaling of the TCR is inhibited by S3.1 and S3.4 treatment interactions with Lck were investigated by immunoprecipitating Lck and blotting for Hsp90. For immunprecipitation experiments 1.0·10^7 cells were used per condition. Cells were pelleted and lysed as described previously. The supernatant was precleared by adding 10 μl Protein A/G UltraLink resin (Pierce Biotechnology, Rockford, USA) for 30 minutes at 4° C. Beads were spinned down and discarded. Samples were incubated with 2 μg primary antibody and 25 μl beads for 2 hours at 4° C. Beads were washed with PBS, sample buffer was added and heated to 95° C. for 5 minutes.

[4] = system: phospho-Zap70; assay: Western blot of TCR related signaling, phospho-Zap70; format: cell-based, Human; details: 10 min pretreatment, 10 min PHA; compared to a stimulated untreated control
Description: as §1, §2

c1ccc(CN2CCCC(c3ccnc(SCCN4CCCC4)n3)C2)cc1 (stereo not shown) [S3.4, 4-(1-benzylpiperidin-3-yl)-2-(2-(pyrrolidin-1-yl)ethylthio)-pyrimidine]
effect on lymphocyte proliferation [1]: antiproliferative effect; also recorded: shows effect on lymphocyte proliferation
phosphorylation level of scaffolding protein LAT [2]: lower phosphorylation levels
interaction between LCK and its chaperone Hsp90 [3]: lost
phosphorylation level of kinase Zap70 [4]: lower phosphorylation levels
